PubChem BioAssay AID318 (DTP/NCI, 2004)
Several values for one entry are separate records, joined by “and”; a condition that tells them apart may be missing. Equal values may be shown once. Inconclusive results and toxic doses are left out.

Test system: BDF1 mice, P815 leukemia ip, survival T/C
Assay: NCI In Vivo Anticancer Drug Screen. Data for tumor model P815 Mast Cell Leukemia (Ascitic) (intraperitoneal) in B6D2F1 (BDF1) mice
Conditions: higher = longer survival
Description: The antitumor activity of compounds was measured in mice bearing transplantable tumors. Survival or tumor size were measured and the results are expressed as the measurement made in the treated group (T) divided by the measurement made in the vehicle treated control group (C). The tumor model used in this assay is P815 Mast Cell Leukemia (Ascitic) (intraperitoneal) in B6D2F1 (BDF1) mice

[1] = endpoint: survival time, mean or median, dose: 125.0 mg/kg/injection, schedule: Q01DX010 (ip), vehicle: saline
[2] = endpoint: survival time, mean or median, dose: 250.0 mg/kg/injection, schedule: Q01DX010 (ip), vehicle: saline
[3] = endpoint: survival time, mean or median, dose: 500.0 mg/kg/injection, schedule: Q01DX010 (ip), vehicle: saline
[4] = endpoint: survival time, mean or median, dose: 62.5 mg/kg/injection, schedule: Q01DX010 (ip), vehicle: saline
[5] = endpoint: survival time, mean or median, dose: 50.0 mg/kg/injection, schedule: Q01DX010 (ip), vehicle: saline
[6] = endpoint: survival time, mean or median, dose: 100.0 mg/kg/injection, schedule: Q01DX010 (ip), vehicle: saline

O=C(O)CCCc1ccc(N(CCCl)CCCl)cc1
T/C (endpoint: survival time, mean or median, dose: 3.13 mg/kg/injection, schedule: Q01DX010 (ip), vehicle: saline): 100 % of control
T/C (endpoint: survival time, mean or median, dose: 6.25 mg/kg/injection, schedule: Q01DX010 (ip), vehicle: saline): 105 % of control
T/C (endpoint: survival time, mean or median, dose: 12.5 mg/kg/injection, schedule: Q01DX010 (ip), vehicle: saline): 122 % of control

CCCCN(CCCC)CCCCCN
T/C (endpoint: survival time, mean or median, dose: 5.0 mg/kg/injection, schedule: Q01DX015 (ip), vehicle: carboxymethylcellulose (CMC)): 111 % of control
T/C (endpoint: survival time, mean or median, dose: 10.0 mg/kg/injection, schedule: Q01DX015 (ip), vehicle: carboxymethylcellulose (CMC)): 103 % of control
T/C (endpoint: survival time, mean or median, dose: 20.0 mg/kg/injection, schedule: Q01DX015 (ip), vehicle: carboxymethylcellulose (CMC)): 104 % of control
T/C (endpoint: survival time, mean or median, dose: 30.0 mg/kg/injection, schedule: Q01DX015 (ip), vehicle: carboxymethylcellulose (CMC)): 105 % of control

CCOC(N)=O
T/C [1]: 100 % of control
T/C [2]: 100 % of control and 118 % of control
T/C [3]: 100 % of control and 104 % of control

Nc1cc(C(=O)Nc2ccc(C3=NCCN3)cc2)cc(C(=O)Nc2ccc(C3=NCCN3)cc2)c1
T/C (endpoint: survival time, mean or median, dose: 16.0 mg/kg/injection, schedule: Q01DX010 (ip), vehicle: saline): 116 % of control
T/C (endpoint: survival time, mean or median, dose: 32.0 mg/kg/injection, schedule: Q01DX010 (ip), vehicle: saline): 120 % of control
T/C (endpoint: survival time, mean or median, dose: 64.0 mg/kg/injection, schedule: Q01DX010 (ip), vehicle: saline): 150 % of control

Cc1nc(CON)cs1
T/C (endpoint: median survival time, dose: 50.0 mg/kg/injection, schedule: Q01DX015 (ip), vehicle: saline): 90 % of control
T/C (endpoint: median survival time, dose: 100.0 mg/kg/injection, schedule: Q01DX015 (ip), vehicle: saline): 94 % of control

CC(=O)Nc1ccc(/C=N/Nc2ccc([N+](=O)[O-])cn2)cc1
T/C (endpoint: survival time, mean or median, dose: 31.3 mg/kg/injection, schedule: Q01DX010 (ip), vehicle: saline): 100 % of control
T/C [4]: 100 % of control
T/C [1]: 100 % of control
T/C [2]: 88 % of control

C[C@H](N)C(=O)N[C@@H]1[C@H]2C(=C(O)C[C@@H](O)[C@@H]2O)C(=O)O[C@@H]1C
T/C (endpoint: survival time, mean or median, dose: 150.0 mg/kg/injection, schedule: Q01DX010 (ip), vehicle: saline): 122 % of control
T/C (endpoint: survival time, mean or median, dose: 1200.0 mg/kg/injection, schedule: Q01DX010 (ip), vehicle: saline): 183 % of control

NC12CC3CC(CC(C3)C1)C2
T/C (endpoint: survival time, mean or median, dose: 25.0 mg/kg/injection, schedule: Q01DX010 (ip), vehicle: saline): 100 % of control
T/C [5]: 100 % of control
T/C [6]: 105 % of control

CC(=O)NC1=C(N2CC2)C(=O)C(NC(C)=O)=C(N2CC2)C1=O
T/C (endpoint: survival time, mean or median, dose: 0.5 mg/kg/injection, schedule: Q01DX015 (ip), vehicle: carboxymethylcellulose (CMC)): 203 % of control
T/C (endpoint: survival time, mean or median, dose: 1.0 mg/kg/injection, schedule: Q01DX015 (ip), vehicle: carboxymethylcellulose (CMC)): 103 % of control

O=C(Nc1ccc(C2=NCCN2)cc1)Nc1cccc(NC(=O)Nc2ccc(C3=NCCN3)cc2)c1
T/C (endpoint: survival time, mean or median, dose: 120.0 mg/kg/injection, schedule: Q01DX010 (ip), vehicle: saline): 258 % of control and 276 % of control
T/C (endpoint: survival time, mean or median, dose: 240.0 mg/kg/injection, schedule: Q01DX010 (ip), vehicle: saline): 88 % of control and 92 % of control

O=CCC(O)C(O)C(O)CO (configuration not stated)
T/C [4]: 94 % of control and 97 % of control
T/C [1]: 97 % of control and 105 % of control
T/C [2]: 105 % of control and 107 % of control
T/C [3]: 102 % of control

CN=C(NC)c1ccc(NC(=O)c2ccc(C(=O)Nc3ccc(C(=NC)NC)cc3)c(Cl)c2)cc1
T/C (endpoint: survival time, mean or median, dose: 18.0 mg/kg/injection, schedule: Q01DX010 (ip), vehicle: saline): 91 % of control
T/C (endpoint: survival time, mean or median, dose: 27.0 mg/kg/injection, schedule: Q01DX010 (ip), vehicle: saline): 100 % of control

O=c1[nH]c(=O)n(C2CC(O)C(CO)O2)cc1F (configuration not stated)
T/C (endpoint: survival time, mean or median, dose: 5.0 mg/kg/injection, schedule: Q01DX010 (ip), vehicle: saline): 100 % of control
T/C (endpoint: survival time, mean or median, dose: 10.0 mg/kg/injection, schedule: Q01DX010 (ip), vehicle: saline): 100 % of control and 105 % of control
T/C (endpoint: survival time, mean or median, dose: 20.0 mg/kg/injection, schedule: Q01DX010 (ip), vehicle: saline): 111 % of control and 116 % of control
T/C (endpoint: survival time, mean or median, dose: 40.0 mg/kg/injection, schedule: Q01DX010 (ip), vehicle: saline): 111 % of control

COc1cc(-c2ccc(Nc3ccccc3C(=O)O)c(OC)c2)ccc1Nc1ccccc1C(=O)O
T/C (endpoint: survival time, mean or median, dose: 45.0 mg/kg/injection, schedule: Q01DX010 (ip), vehicle: saline): 108 % of control
T/C (endpoint: survival time, mean or median, dose: 67.0 mg/kg/injection, schedule: Q01DX010 (ip), vehicle: saline): 120 % of control

O=C1C(NC(=O)C2CCCCC2)=C(N2CC2)C(=O)C(NC(=O)C2CCCCC2)=C1N1CC1
T/C [5]: 88 % of control
T/C [6]: 94 % of control
